Measured values: patent publication US10933062B2, “Analgesic therapeutic and method, 1-(3-4(((1 R,3S,5S)-adamantan-1-yl)(phenyl)methyl)propyl)-4-methylpiperazine and salts thereof” (ANAVEX LIFE SCIENCES CORP., priority 2016, dated 2021)
Values joined by “and” are separate entries in the source; they are usually repeats but may differ in a detail not shown here. Identical values can stand only once.

Assays:
[1] = test system: model of peripheral mononeuropathy (Bennett model) in rats; test: Chronic constriction injury (Bennett model) of peripheral mononeuropathy, paw pressure test; format: in vivo
[2] = test system: model of TNBS-induced chronic colonic hypersensitivity in rats; test: TNBS-induced chronic colonic hypersensitivity, colorectal balloon distension threshold; details: for % antihypersensitivity activity / Colonic distension threshold (mmHg): TNBS 50 mg/kg
[3] = test system: patients with nociceptive or neuropathic pain; test: Patient examples 1-5: oral AV1066, patient-reported pain control; format: in vivo, human; details: Example 1, bone fracture pain (nociceptive), oral 5 mg/kg/day, days 3, 7, 16, 28
Description: A patient or subject (the terms are used interchangeably) presents with a fractured collar bone arising from a bicycling accident. They are complaining of significant shoulder pain. The patient's pain is classified according to the
International Association for the Study of Pain as nociceptive. They are orally administered AV1066 5 mg/kg/day. They are examined at days 3, 7, 16, and 28. At each visit the patient is assessed for pain control compared with the previous visit.
A patient presents with a second […]. They are complaining of significant pain. The patient's pain is classified according to the International Association for the Study of Pain as nociceptive. They are orally administered the phosphate salt of AV1066 10 mg/kg daily in two doses. They are examined at 12 hours, and daily thereafter for 4 days. At each visit the patient is assessed for pain control compared with the previous visit.
A patient presents with a benign tumor mass compressing their left shoulder causing movement pain. The patient's pain is classified according to the International Association for the Study of Pain as nociceptive. They are orally administered the sodium salt of AV1066 30 mg/kg/day in two doses. They are examined daily thereafter at 3, 7, and 28 days. At each visit the patient is assessed for pain control compared with the previous visit. […]

[4] = test system: model of peripheral mononeuropathy (Bennett model) in rats; details: typical values given for comparison; cited from earlier work
[5] = injured paw, TO (pre-drug), 3 mg/kg s.c.
[6] = injured paw, TO + 30 min, 3 mg/kg s.c.
[7] = injured paw, TO + 60 min, 3 mg/kg s.c.
[8] = injured paw, TO + 120 min, 3 mg/kg s.c.
[9] = injured paw, TO + 180 min, 3 mg/kg s.c.
[10] = injured paw, TO (pre-drug), 10 mg/kg p.o.
[11] = injured paw, TO (pre-drug), 30 mg/kg p.o.
[12] = injured paw, TO (pre-drug), 100 mg/kg p.o.
[13] = injured paw, TO + 30 min, 10 mg/kg p.o.
[14] = injured paw, TO + 30 min, 30 mg/kg p.o.
[15] = injured paw, TO + 30 min, 100 mg/kg p.o.
[16] = injured paw, TO + 60 min, 10 mg/kg p.o.
[17] = injured paw, TO + 60 min, 30 mg/kg p.o.
[18] = injured paw, TO + 60 min, 100 mg/kg p.o.
[19] = injured paw, TO + 120 min, 10 mg/kg p.o.
[20] = injured paw, TO + 120 min, 30 mg/kg p.o.
[21] = injured paw, TO + 120 min, 100 mg/kg p.o.
[22] = injured paw, TO + 180 min, 10 mg/kg p.o.
[23] = injured paw, TO + 180 min, 30 mg/kg p.o.
[24] = injured paw, TO + 180 min, 100 mg/kg p.o.
[25] = single administration 10, 30, 100 mg/kg PO

## CN1CC[C@]23c4c5ccc(O)c4O[C@H]2[C@@H](O)C=C[C@H]3[C@H]1C5.Cl [Morphine HCl, reference compound]
[1]; control paw, TO, 3 mg/kg s.c.
  Nociceptive threshold: 349 ± 11.1 g
[1]; [5]
  % variation vs control paw: −47%
  % variation vs vehicle-treated group: −8%
  Nociceptive threshold: 184 ± 11.9 g
[1]; [6]
  % variation vs control paw: −11%
  % variation vs pre-drug threshold: 212%
  % variation vs vehicle-treated group: 194%
  Nociceptive threshold: 576 ± 46.8 g
[1]; [7]
  % variation vs control paw: −6%
  % variation vs pre-drug threshold: 212%
  % variation vs vehicle-treated group: 159%
  Nociceptive threshold: 576 ± 28.8 g
[1]; [8]
  % variation vs control paw: −11%
  % variation vs pm-drug threshold: 110%
  % variation vs vehicle-treated group: 90%
  Nociceptive threshold: 387 ± 40.4 g
[1]; [9]
  % variation vs control paw: −19%
  % variation vs pre-drug threshold: 31%
  % variation vs vehicle-treated group: 13%
  Nociceptive threshold: 242 ± 19.0 g

## CN1CCN(CCCc2ccc(C(c3ccccc3)C34CC5CC(CC(C5)C3)C4)cc2)CC1 [AV1066, 1-(3-4(((1R,3S,5S)-adamantan-1-yl)(phenyl)methyl)propyl)-4-methylpiperazine]
[2]; 10 mg/kg p.o.
  % antihypersensitivity activity: 26%
  Colonic distension threshold (mmHg): 30.3 ± 1.3 mmHg
[2]; 30 mg/kg p.o.
  % antihypersensitivity activity: 71%
  Colonic distension threshold (mmHg): 36.4 ± 1.3 mmHg
[2]; TNBS study, single PO administration
  untoward effects: No untoward effects
[1]; 30 mg/kg dose, T=+30 minutes
  difference in the nociceptive threshold vs. vehicle: 116 g
[1]; 30 mg/kg dose, T=+30 minutes, vs vehicle
  anti-hyperalgesic effect: 59%
[1]; CCI study, 10, 30, 100 mg/kg PO
  untoward effects: No untoward effects
[1]; control paw, TO, 10 mg/kg p.o.
  Nociceptive threshold: 366 ± 11.9 g
[1]; control paw, TO, 30 mg/kg p.o.
  Nociceptive threshold: 352 ± 15.8 g
[1]; control paw, TO, 100 mg/kg p.o.
  Nociceptive threshold: 354 ± 9.9 g
[1]; [10]
  % variation vs control paw: −54%
  % variation vs vehicle-treated group: −15%
  Nociceptive threshold: 170 ± 11.6 g
[1]; [11]
  % variation vs control paw: −45%
  % variation vs vehicle-treated group: −4%
  Nociceptive threshold: 192 ± 8.5 g
[1]; [12]
  % variation vs control paw: −49%
  % variation vs vehicle-treated group: −9%
  Nociceptive threshold: 182 ± 9.6 g
[1]; [13]
  % variation vs control paw: −32%
  % variation vs pre-drug threshold: 38%
  % variation vs vehicle-treated group: 19%
  Nociceptive threshold: 234 ± 11.2 g
[1]; [14]
  % variation vs control paw: −19%
  % variation vs pre-drug threshold: 63%
  % variation vs vehicle-treated group: 59%
[1]; injured paw, TO + 30 min, 30 mg/kg p.o., 30 mg/kg
  Nociceptive threshold: 312 g and 312 ± 15.5 g
[1]; [15]
  % variation vs control paw: −20%
  % variation vs pre-drug threshold: 64%
  % variation vs vehicle-treated group: 52%
  Nociceptive threshold: 298 ± 21.4 g
[1]; [16]
  % variation vs control paw: −29%
  % variation vs pre-drug threshold: 39%
  % variation vs vehicle-treated group: 6%
  Nociceptive threshold: 236 ± 11.5 g
[1]; [17]
  % variation vs control paw: −16%
  % variation vs pre-drug threshold: 43%
  % variation vs vehicle-treated group: 23%
  Nociceptive threshold: 274 ± 14.3 g
[1]; [18]
  % variation vs control paw: −11%
  % variation vs pre-drug threshold: 60%
  % variation vs vehicle-treated group: 32%
  Nociceptive threshold: 292 ± 17.2 g
[1]; [19]
  % variation vs control paw: −30%
  % variation vs pm-drug threshold: 27%
  % variation vs vehicle-treated group: 6%
  Nociceptive threshold: 216 ± 12.6 g
[1]; [20]
  % variation vs control paw: −21%
  % variation vs pm-drug threshold: 41%
  % variation vs vehicle-treated group: 32%
  Nociceptive threshold: 270 ± 11.6 g
[1]; [21]
  % variation vs control paw: −23%
  % variation vs pm-drug threshold: 44%
  % variation vs vehicle-treated group: 28%
  Nociceptive threshold: 262 ± 12.5 g
[1]; [22]
  % variation vs control paw: −23%
  % variation vs pre-drug threshold: 38%
  % variation vs vehicle-treated group: 9%
  Nociceptive threshold: 234 ± 15.5 g
[1]; [23]
  % variation vs control paw: −36%
  % variation vs pre-drug threshold: 1%
  % variation vs vehicle-treated group: −9%
  Nociceptive threshold: 194 ± 13.0 g
[1]; [24]
  % variation vs control paw: −27%
  % variation vs pre-drug threshold: 16%
  % variation vs vehicle-treated group: −1%
  Nociceptive threshold: 212 ± 15.8 g
[1]; [25]
  effect on nociceptive (pain) threshold of the affected paw, in words: dose-dependently restores the pain threshold lowered by chronic constriction injury
  time at which efficacy was apparent post-dose: 30 min
  time for which efficacy remained significant: 2 h
[1]; whatever the dose
  max effect: 59%
[3]
  patient-reported pain control: tolerable and improved at each visit

## NCC1(CC(=O)O)CCCCC1 [gabapentin]
[4]
  anti-hyperalgesic effect, typical range of non-opioid treatments: 40-50%
